Results reported in ChEMBL document CHEMBL1201862, “PubChem BioAssay data set” (2004).
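Following 48 hours of exposure in 96-well plates, responses at five concentrations were used to interpolate endpoints linearly. At the GI50, growth is halved.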 Activity calls are given as the source filed them. Cut-off read from the data, not from the text of the source: active = GI50 up to about 1.1 µM and inactive = higher.

Columns and labels:
Experiment in all cases: NCI anticancer screen, dose series, 48 h
[1] = tested on: IGROV-1
[2] = tested on: K562
[3] = tested on: OVCAR-3
[4] = tested on: UACC-62
[5] = tested on: UO-31
[6] = tested on: EKVX
[7] = tested on: BT-549
[8] = tested on: MDA-N
[9] = tested on: KM12
[10] = tested on: SF-268
[11] = tested on: NCI-H522
[12] = tested on: Hs-578T
[13] = tested on: MDA-MB-435
[14] = tested on: SW-620
[15] = tested on: CAKI-1
[16] = tested on: A498
[17] = tested on: RPMI-8226
[18] = tested on: MDA-MB-231
[19] = tested on: SK-MEL-5

Measured: GI50

Cn1c2ccc([N+](=O)[O-])cc2c(=O)c2c(O)cc(O)cc21
inactive: [1] 15.5 µM | [2] > 100 µM | [3] 52.4 µM | [4] 54.5 µM | [5] 59 µM | [6] 5.94 µM | [7] 28.4 µM | [8] > 100 µM | [9] 61.1 µM | [10] 19.7 µM | [11] 7.74 µM | [12] 27.5 µM | [13] > 100 µM | [14] 68.2 µM | [15] 43 µM | [16] > 100 µM | [17] > 100 µM | [18] 57.3 µM | [19] 60 µM

CCOc1ccc(/N=N/C2C(=O)N(C(=O)CC(=O)Nc3ccc(Cl)cc3)N=C2C)cc1 (stereo not given)
inactive: [1] > 100 µM | [3] > 100 µM | [4] > 100 µM | [5] > 100 µM | [6] > 100 µM | [7] > 100 µM | [8] > 100 µM | [9] > 100 µM | [10] > 100 µM | [11] > 100 µM | [12] > 100 µM | [13] > 100 µM | [14] > 100 µM | [15] > 100 µM | [16] > 100 µM | [17] > 100 µM | [18] > 100 µM | [19] > 100 µM

CC(=O)OC/C=C(/C=C/CNC1CCCCC1)OC(C)=O
inactive: [1] 18.6 µM | [2] 12.9 µM | [3] 17.4 µM | [4] 19.1 µM | [6] 16.5 µM | [7] 16.9 µM | [8] 18 µM | [9] 15.5 µM | [10] 17.1 µM | [11] 21.4 µM | [12] 36.3 µM | [13] 16 µM | [14] 14 µM | [15] 13.8 µM | [16] 19.8 µM | [17] 4.83 µM | [18] 14.3 µM | [19] 17.9 µM

Cc1cccc(NC(=O)CCl)c1
inactive: [1] > 10 µM | [2] 6.11 µM | [3] 6.4 µM | [4] 5.64 µM | [6] > 10 µM | [7] > 10 µM | [8] > 10 µM | [9] > 10 µM | [10] 8.69 µM | [11] 1.95 µM | [12] > 10 µM | [13] 9.02 µM | [14] > 10 µM | [15] > 10 µM | [16] > 10 µM | [17] > 10 µM | [18] 5.93 µM | [19] 7.71 µM

CSc1ncc2c(n1)sc1c(=O)n(-c3ccccc3)cnc12
inactive: [1] > 100 µM | [2] > 100 µM | [3] > 100 µM | [4] > 100 µM | [5] > 100 µM | [7] > 100 µM | [8] > 100 µM | [9] > 100 µM | [10] > 100 µM | [11] > 100 µM | [12] > 100 µM | [13] > 100 µM | [14] > 100 µM | [15] > 100 µM | [16] > 100 µM | [17] > 100 µM | [18] > 100 µM | [19] > 100 µM

COC(=O)c1ccccc1/C=C1\Cc2cc3c(cc2C1=O)CCC3
inactive: [1] > 100 µM | [3] > 100 µM | [4] 32.1 µM | [5] > 100 µM | [6] > 100 µM | [7] > 100 µM | [8] 3.78 µM | [9] > 100 µM | [10] 68.5 µM | [11] 68.9 µM | [12] > 10 µM | [13] 3.89 µM | [14] > 100 µM | [15] > 100 µM | [16] 61.2 µM | [17] > 100 µM | [18] > 100 µM | [19] > 100 µM

O=C(/N=C1/OC(CN2CCOCC2)CN1C(=O)Nc1ccccc1)Nc1ccccc1 (stereo not given)
inactive: [1] > 100 µM | [2] > 100 µM | [4] > 100 µM | [5] > 100 µM | [6] > 100 µM | [7] > 100 µM | [8] > 100 µM | [9] > 100 µM | [10] > 100 µM | [11] > 100 µM | [12] > 100 µM | [13] > 100 µM | [14] > 100 µM | [15] > 100 µM | [16] > 100 µM | [17] > 100 µM | [18] > 100 µM | [19] > 100 µM

CC(=O)OCCC1c2ccccc2-n2nc(-c3ccccc3)c(O)c21 (stereo not given)
inactive: [1] > 10 µM | [2] 10.8 µM | [3] 21.3 µM | [5] 16.7 µM | [6] 15.9 µM | [7] 17.1 µM | [8] 17.5 µM | [9] 16.6 µM | [10] 34.7 µM | [11] 16.6 µM | [12] 19.5 µM | [13] 16.9 µM | [14] 15.8 µM | [15] 18.7 µM | [16] 16.4 µM | [17] 8.07 µM | [18] 19.3 µM | [19] 17 µM
